Data published in patent US20240269112A1 (priority 2020, published 2024).

What was measured:
[1] = tested on: septic patients who have undergone abdominal surgery; settings: human, in vivo
Excerpt: The following parameters related to kidney function have been determined: • Creatinine is a waste molecule generated from muscle metabolism. Creatinine originates from creatine, a very important molecule for energy production in the muscle. About 2% of creatine in the body is converted into creatinine every day. Creatinine is transported from muscles to the kidney by blood. The kidneys filter most of the creatinine and eliminate it in the urine. Determination of serum creatinine is a test which provides a fairly reliable indication of the state of kidney function. • Urea, the determination of which is the most widely used test to assess kidney function. Urea is the end product of protein and amino acid metabolism. In protein degradation, proteins are split into amino acids and deaminated. Urea is synthesized in the liver with the ammonia that is formed. This is the most important pathway for degrading excess nitrogen in the human body.

[2] = tested on: septic patients who have undergone abdominal surgery; settings: human, in vivo; remark: listed apart in the source
Excerpt: The enzyme lactate dehydrogenase (or also called “lactic acid dehydrogenase” (LDH)), an enzyme which is found in almost all the tissues in the human body, has been determined to detect injuries in tissues such as the liver. It plays an important role in cellular respiration (the process in which glucose from foods is converted into energy which can be used by cells).
Although LDH is abundant in tissue cells, the levels in blood are generally low. However, when tissues are damaged as a result of an injury or a disease, they release more LDH into the blood stream. This increase in the amount of LDH in the blood stream is often caused by the following conditions: liver diseases, heart attacks, anemia, muscle trauma, bone fracture, cancer, infections such as meningitis, encephalitis, or HIV.

[3] = tested on: Covid-19 patients admitted to the ICU; test: Efficacy and safety of IV melatonin in Covid-19 patients admitted to the ICU: hospital/ICU stay, mechanical ventilation, adverse reactions; format: in vivo, human
Experimental: (§1) To conduct this study, all patients received standard treatment according to institutional protocols. Furthermore, patients were assigned randomly in a 2:1 ratio to receive: • Experimental group (12 patients): 7 days of 5 mg/kg body weight/day of intravenous melatonin every 6 hours. Daily maximum dose of 500 mg a day. • Control group (6 patients): 7 days of 5 mg/kg body weight/day of placebo with identical appearance through the intravenous route every 6 hours.
(§2) After 3 days of treatment, 3 intensive care physicians evaluated each participant and decided whether or not they wished to complete the treatment based on their clinical assessment: • If there were objective or subjective signs of improvement or non-worsening of general clinical condition or respiratory failure, with no observation of inflammatory condition or multiorgan failure, the participant continued treatment until completion. • If an adverse effect or clinical deterioration which can be objectively or subjectively attributed to the study drug was observed, treatment was discontinued.
(§3) The injectable composition was prepared according to the criteria established in Example 1 by adjusting the amounts to 5 mg/kg body weight/day of intravenous melatonin every 6 hours.
(§4) • To evaluate whether iv treatment with melatonin reduced the duration of ICU (intensive care unit) admission. • To evaluate whether iv treatment with melatonin reduced the duration of mechanical ventilation (MV). • To evaluate whether iv treatment with melatonin was associated with an increase in MV-free days. • To evaluate whether iv treatment with melatonin is associated with a reduction in systemic inflammatory response, defined by the levels of ferritin, D-dimer, C-reactive protein (CRP) or procalcitonin (PCT) and IL-6. 1. Evaluating Whether iv Treatment with Melatonin Reduced the Duration of ICU (Intensive Care Unit) Admission (See FIG. 7)

[4] = tested on: Covid-19 patients admitted to the ICU; test: IV melatonin in Covid-19 ICU patients: systemic inflammatory response (ferritin, D-dimer, CRP, IL-6, lymphocytes); format: in vivo, human
Experimental: as §1, §2, §3, §4

[5] = tested on: septic patients who have undergone abdominal surgery; settings: human, in vivo; remark: listed apart in the source
[6] = tested on: septic patients who have undergone abdominal surgery; test: Clinical study with septic patients: blood parameters (leukocytes, red blood cells, hemoglobin, hematocrit, neutrophils, lymphocytes, platelets); settings: regardless of time, p=0.007
Experimental: The following blood parameters from these samples were analyzed for each of the participating patients: the number of leukocytes, the number of red blood cells, hemoglobin, hematocrit, percentage of neutrophils, percentage of lymphocytes, and the number of platelets.

[7] = 5 mg/kg/day iv every 6 hours, 7 days

For `COc1ccc2[nH]cc(CCNC(C)=O)c2c1` [melatonin, N-acetyl-5-methoxytryptamine], the “Levels of creatinine compared between groups A and B in each time point” value [1] was “no statistically significant differences”, the “Levels of urea compared between the two groups in each time point” value [1] was “higher in group B (placebo)” and the “Levels of LDH compared between the two groups in each time point” value [2] was “higher in group A (melatonin)”. For the same molecule, the Adverse reactions ([3]; 5 mg/kg/day for 7 days) was “did not cause any adverse reactions”, the “Increase in the number of days without mechanical ventilation compared to placebo” value ([3]; 5 mg/kg/day for 7 days) was 16 days and the “Reduction in invasive mechanical ventilation compared to placebo” value ([3]; 5 mg/kg/day for 7 days) was 9 days. For the same molecule, the “Days without mechanical ventilation during hospitalization (MV-free days)” value [3, 7] was 40 days, the “Duration of ICU admission compared to placebo” value [3, 7] was “no significant difference” and the “Duration of invasive mechanical ventilation” value [3, 7] was 21 days. For the same molecule, the “Duration of non-invasive mechanical ventilation” value [3, 7] was 16.5 days, the “Reduction in hospital stay compared to placebo” value [3, 7] was 15 days and the Inflammatory response ([4]; 5 mg/kg/day for 7 days) was “improvement in the inflammatory response”. For the same molecule, the “Levels of dimer-D (D-dimer)” value ([4]; during the days of treatment, FIG. 2) was “reduction”, the Levels of ferritin ([4]; during the days of treatment, FIG. 3) was “reduction” and the “Levels of CRP” value ([4]; during the days of treatment, FIG. 4) was “reduction”. For the same molecule, the IL6 ([4]; during the days of treatment, FIG. 5) was “reduction”, the Bilirubin ([4]; during treatment) was “has to drop” and the Neutrophils ([4]; during treatment) was “tendency of neutrophils decreasing”. For the same molecule, the “Lymphocytes with respect to placebo” value ([4]; during treatment, FIG. 6) was “increase”, the “ALP (alkaline phosphatase): average values between groups” value [5] was “not statistically significant” and the “GGT: average values between groups” value [5] was “not statistically significant”. The “GOT: differences in average values between groups” value [5] was “not statistically significant”, the “GPT: average values between groups” value [5] was “not statistically significant” and the “Neutrophil average, group A compared with group B (placebo)” value [6] was “higher in group B (placebo) than in group A (melatonin)”.
